Measured values from the supplement of paper PMC10307832.

Assays:
Assay in all cases: relative viability (nuclei count vs DMSO), 5 days (fraction); higher = more cells survive
NCI-H1703 = tested on: NCI-H1703
Summary of the method: (§1)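 Relative viability divides the nuclei count in treated wells by that in vehicle wells. Lung cancer cell lines were seeded in 1536-well plates, dosed by pin tool the next day, and fixed and stained after 5 days in one step with final 0.05% Triton X-100, 1% formaldehyde and 1 ug/ml Hoechst. Dosing was a single drug or a fixed anchor-drug dose plus five library-drug doses (not always all listed) in √10 steps, and values are medians of duplicate plates imaged at 4×.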

NCI-H1299 = tested on: NCI-H1299
Summary of the method: as §1

A549 = tested on: A549
Summary of the method: as §1

EBC-1 = tested on: EBC-1
Summary of the method: as §1

Calu-6 = tested on: Calu-6
Summary of the method: as §1

NCI-H1355 = tested on: NCI-H1355
Summary of the method: as §1

IA-LM = tested on: IA-LM
Summary of the method: as §1

NCI-H1648 = tested on: NCI-H1648
Summary of the method: as §1

SMILES | relative viability (NCI-H1703; first compound 0.04 µM) | relative viability (NCI-H1703; first compound 0.1265 µM) | relative viability (NCI-H1703; first compound 0.4 µM) | relative viability (NCI-H1703; first compound 4 µM) | relative viability (NCI-H1299; first compound 0.04 µM) | relative viability (NCI-H1299; first compound 0.1265 µM) | relative viability (NCI-H1299; first compound 0.4 µM) | relative viability (NCI-H1299; first compound 4 µM) | relative viability (EBC-1; first compound 0.04 µM) | relative viability (EBC-1; first compound 0.1265 µM) | relative viability (EBC-1; first compound 0.4 µM) | relative viability (EBC-1; first compound 4 µM) | relative viability (Calu-6; first compound 0.04 µM) | relative viability (Calu-6; first compound 0.1265 µM) | relative viability (Calu-6; first compound 0.4 µM) | relative viability (Calu-6; first compound 4 µM) | relative viability (NCI-H1355; first compound 0.04 µM) | relative viability (NCI-H1355; first compound 0.1265 µM) | relative viability (NCI-H1355; first compound 0.4 µM) | relative viability (NCI-H1355; first compound 4 µM) | further results
Clc1ccc(Nc2nnc(Cc3ccncc3)c3ccccc23)cc1 [Vatalanib] + C[C@@H](Oc1cc(-c2cnn(C3CCNCC3)c2)cnc1N)c1c(Cl)ccc(F)c1Cl [Crizotinib] (partner 1 µM) | 0.669 | 0.77 | 0.866 | 0.303 | 0.956 | 0.96 | 0.957 | 0.965 | 0.218 | 0.178 | 0.176 | 0.21 | 0.756 | 0.662 | 0.779 | 0.643 | 1.05 | 1.08 | 1.13 | 0.953 | relative viability (NCI-H1703; first compound 1.265 µM): 0.524; relative viability (NCI-H1299; first compound 1.265 µM): 0.964; relative viability (A549; first compound 0.04 µM): 0.857; relative viability (A549; first compound 0.1265 µM): 0.843; relative viability (A549; first compound 0.4 µM): 0.907; relative viability (A549; first compound 1.265 µM): 0.597; relative viability (A549; first compound 4 µM): 0.713; relative viability (EBC-1; first compound 1.265 µM): 0.191; relative viability (Calu-6; first compound 1.265 µM): 0.779; relative viability (NCI-H1355; first compound 1.265 µM): 0.886; relative viability (IA-LM; first compound 0.04 µM): 0.649; relative viability (IA-LM; first compound 0.1265 µM): 0.875; relative viability (IA-LM; first compound 0.4 µM): 0.724; relative viability (IA-LM; first compound 1.265 µM): 0.743; relative viability (IA-LM; first compound 4 µM): 0.721
CC(C)Oc1cc(Nc2nc(N[C@@H](C)c3ccc(F)cn3)ncc2Cl)n[nH]1 [AZ23] + CC(C)C[C@H](NC(=O)[C@H](Cc1ccccc1)NC(=O)c1cnccn1)B(O)O [Bortezomib] (partner 0.002 µM) | – | – | – | – | – | – | – | – | – | – | – | – | – | – | – | – | – | – | – | – | relative viability (NCI-H1703; first compound 0.03162 µM): 0.367; relative viability (NCI-H1703; first compound 0.3162 µM): 0.363; relative viability (NCI-H1299; first compound 0.01 µM): 1.03; relative viability (NCI-H1299; first compound 0.03162 µM): 1.02; relative viability (NCI-H1299; first compound 0.3162 µM): 1.1; relative viability (EBC-1; first compound 0.01 µM): 0.579; relative viability (EBC-1; first compound 0.03162 µM): 0.64; relative viability (EBC-1; first compound 0.3162 µM): 0.493; relative viability (Calu-6; first compound 0.03162 µM): 1.15; relative viability (Calu-6; first compound 0.3162 µM): 1.04; relative viability (NCI-H1355; first compound 0.01 µM): 1.33; relative viability (NCI-H1355; first compound 0.03162 µM): 1.17; relative viability (NCI-H1355; first compound 0.3162 µM): 1.26; relative viability (IA-LM; first compound 0.01 µM): 1; relative viability (IA-LM; first compound 0.03162 µM): 0.883; relative viability (IA-LM; first compound 0.3162 µM): 0.776
COc1cc(N2CCC(C(N)=O)CC2)ccc1Nc1nc(N)c(Cl)c(Nc2ccccc2S(=O)(=O)C(C)C)n1 [HG-5-88-01] + CC(C)C[C@H](NC(=O)[C@H](Cc1ccccc1)NC(=O)c1cnccn1)B(O)O [Bortezomib] (partner 0.002 µM) | 0.263 | 0.42 | 0.384 | 0.239 | 1.02 | 1.02 | 1.03 | 1.04 | 0.567 | 0.624 | 0.549 | 0.241 | 1.03 | 0.998 | 0.978 | 0.841 | 1.37 | 1.37 | 1.21 | 0.96 | relative viability (NCI-H1703; first compound 1.265 µM): 0.312; relative viability (NCI-H1299; first compound 1.265 µM): 1.04; relative viability (EBC-1; first compound 1.265 µM): 0.474; relative viability (Calu-6; first compound 1.265 µM): 0.925; relative viability (NCI-H1355; first compound 1.265 µM): 1.14; relative viability (IA-LM; first compound 0.04 µM): 0.835; relative viability (IA-LM; first compound 0.1265 µM): 0.849; relative viability (IA-LM; first compound 0.4 µM): 0.724; relative viability (IA-LM; first compound 1.265 µM): 0.812; relative viability (IA-LM; first compound 4 µM): 0.666
Clc1ccc(Nc2nnc(Cc3ccncc3)c3ccccc23)cc1 [Vatalanib] + NC(=O)Nc1cc(-c2cccc(F)c2)sc1C(=O)N[C@H]1CCCNC1 [AZD7762] (partner 0.2 µM) | 0.128 | 0.14 | 0.126 | 0.109 | – | – | – | – | – | – | – | – | – | – | – | – | 0.792 | 0.745 | 0.767 | 0.597 | relative viability (NCI-H1648; first compound 0.04 µM): 0.528; relative viability (NCI-H1648; first compound 0.1265 µM): 0.632; relative viability (NCI-H1648; first compound 0.4 µM): 0.665; relative viability (NCI-H1648; first compound 1.265 µM): 0.655; relative viability (NCI-H1648; first compound 4 µM): 0.735; relative viability (NCI-H1355; first compound 1.265 µM): 0.578
COc1cc(N2CCC(C(N)=O)CC2)ccc1Nc1nc(N)c(Cl)c(Nc2ccccc2S(=O)(=O)C(C)C)n1 [HG-5-88-01] + Cc1nc(NC(=O)N2CCC[C@H]2C(N)=O)sc1-c1ccnc(C(C)(C)C(F)(F)F)c1 [Alpelisib] (partner 2 µM) | 0.265 | 0.317 | 0.38 | 0.399 | 1.04 | 1.09 | 0.972 | 1.12 | 0.876 | 0.98 | 0.795 | 0.86 | 1.02 | 1.01 | 0.908 | 0.885 | 0.881 | 0.934 | 0.775 | 0.737 | relative viability (NCI-H1703; first compound 1.265 µM): 0.303; relative viability (NCI-H1299; first compound 1.265 µM): 1.05; relative viability (A549; first compound 0.04 µM): 0.925; relative viability (A549; first compound 0.1265 µM): 0.715; relative viability (A549; first compound 0.4 µM): 0.698; relative viability (A549; first compound 1.265 µM): 0.474; relative viability (A549; first compound 4 µM): 0.527; relative viability (EBC-1; first compound 1.265 µM): 0.768; relative viability (Calu-6; first compound 1.265 µM): 0.856; relative viability (NCI-H1355; first compound 1.265 µM): 0.767; relative viability (IA-LM; first compound 0.04 µM): 0.722; relative viability (IA-LM; first compound 0.1265 µM): 1; relative viability (IA-LM; first compound 0.4 µM): 0.627; relative viability (IA-LM; first compound 1.265 µM): 0.447; relative viability (IA-LM; first compound 4 µM): 0.503
C[C@@H]1CN(CC(=O)Nc2ccc3c(c2)Cc2cccc(-c4cc(=O)cc(N5CCOCC5)o4)c2S3)C[C@H](C)O1 + CC(C)C[C@H](NC(=O)[C@H](Cc1ccccc1)NC(=O)c1cnccn1)B(O)O [Bortezomib] (partner 0.002 µM) | 0.469 | 0.365 | 0.241 | 0.254 | 1.03 | 1.03 | 1.01 | 0.926 | 0.636 | 0.535 | 0.472 | 0.335 | 1.07 | 1.03 | 1.08 | 0.66 | 1.2 | 1.23 | 1.19 | 1.18 | relative viability (IA-LM; first compound 0.04 µM): 0.669; relative viability (IA-LM; first compound 0.1265 µM): 0.773; relative viability (IA-LM; first compound 0.4 µM): 0.832; relative viability (IA-LM; first compound 4 µM): 0.375
CC(C)Oc1cc(Nc2nc(N[C@@H](C)c3ccc(F)cn3)ncc2Cl)n[nH]1 [AZ23] + CC1(C)CCC(c2ccc(Cl)cc2)=C(CN2CCN(c3ccc(C(=O)NS(=O)(=O)c4ccc(N[C@H](CCN5CCOCC5)CSc5ccccc5)c(S(=O)(=O)C(F)(F)F)c4)cc3)CC2)C1 [Navitoclax] (partner 0.5 µM) | – | – | – | – | – | – | – | – | – | – | – | – | – | – | – | – | – | – | – | – | relative viability (NCI-H1703; first compound 0.03162 µM): 1.13; relative viability (NCI-H1703; first compound 0.3162 µM): 1.08; relative viability (NCI-H1299; first compound 0.01 µM): 1.08; relative viability (NCI-H1299; first compound 0.03162 µM): 1.04; relative viability (NCI-H1299; first compound 0.3162 µM): 1.08; relative viability (A549; first compound 0.01 µM): 1.58; relative viability (A549; first compound 0.03162 µM): 1.48; relative viability (A549; first compound 0.3162 µM): 1.2; relative viability (EBC-1; first compound 0.01 µM): 0.37; relative viability (EBC-1; first compound 0.03162 µM): 0.451; relative viability (EBC-1; first compound 0.3162 µM): 0.371; relative viability (Calu-6; first compound 0.03162 µM): 0.952; relative viability (Calu-6; first compound 0.3162 µM): 0.739; relative viability (NCI-H1355; first compound 0.01 µM): 0.999; relative viability (NCI-H1355; first compound 0.03162 µM): 0.896; relative viability (NCI-H1355; first compound 0.3162 µM): 0.833; relative viability (IA-LM; first compound 0.01 µM): 0.837; relative viability (IA-LM; first compound 0.03162 µM): 0.97; relative viability (IA-LM; first compound 0.3162 µM): 0.848
Clc1ccc(Nc2nnc(Cc3ccncc3)c3ccccc23)cc1 [Vatalanib] + CC(C)C[C@H](NC(=O)[C@H](Cc1ccccc1)NC(=O)c1cnccn1)B(O)O [Bortezomib] (partner 0.002 µM) | 0.464 | – | 0.558 | 0.21 | 1.02 | 1.06 | 1 | 1.02 | 0.489 | 0.498 | 0.807 | 0.524 | 1.07 | 0.991 | 1.18 | 1.1 | 1.18 | 1.22 | 1.21 | 1.1 | relative viability (NCI-H1703; first compound 1.265 µM): 0.237; relative viability (NCI-H1299; first compound 1.265 µM): 1.04; relative viability (EBC-1; first compound 1.265 µM): 0.519; relative viability (Calu-6; first compound 1.265 µM): 0.911; relative viability (NCI-H1355; first compound 1.265 µM): 1.09; relative viability (IA-LM; first compound 0.04 µM): 0.963; relative viability (IA-LM; first compound 0.1265 µM): 0.955; relative viability (IA-LM; first compound 0.4 µM): 0.91; relative viability (IA-LM; first compound 1.265 µM): 0.763; relative viability (IA-LM; first compound 4 µM): 0.871
CC(C)Oc1cc(Nc2nc(N[C@@H](C)c3ccc(F)cn3)ncc2Cl)n[nH]1 [AZ23] + NC(=O)Nc1cc(-c2cccc(F)c2)sc1C(=O)N[C@H]1CCCNC1 [AZD7762] (partner 0.2 µM) | – | – | – | – | – | – | – | – | – | – | – | – | – | – | – | – | – | – | – | – | relative viability (NCI-H1703; first compound 0.03162 µM): 0.126; relative viability (NCI-H1703; first compound 0.3162 µM): 0.154; relative viability (NCI-H1648; first compound 0.01 µM): 0.659; relative viability (NCI-H1648; first compound 0.03162 µM): 0.518; relative viability (NCI-H1648; first compound 0.3162 µM): 0.762; relative viability (NCI-H1355; first compound 0.01 µM): 0.711; relative viability (NCI-H1355; first compound 0.03162 µM): 0.808; relative viability (NCI-H1355; first compound 0.3162 µM): 0.916
